Results: patent US20210101874A1, “MICROBIOCIDAL OXADIAZOLE DERIVATIVES” (SYNGENTA PARTICIPATIONS AG, priority 2017, published 2021)

Columns and labels:
[1] = tested on: Puccinia recondita f. sp. Tritici; test: Puccinia recondita f. sp. tritici / wheat / leaf disc curative (brown rust); format: in vivo; settings: foliar, 200 ppm in the applied formulation, wheat leaf segments cv. Kanzler, applied 1 day after inoculation, compared to untreated, assessed 6 to 8 days after application, read-out: disease control
Procedure: Leaf disks or leaf segments of various plant species are cut from plants grown in a greenhouse. The cut leaf disks or segments are placed in multiwell plates (24-well format) onto water agar. The leaf disks are sprayed with a test solution before (preventative) or after (curative) inoculation. Compounds to be tested are prepared as DMSO solutions (max. 10 mg/ml) which are diluted to the appropriate concentration with 0.025% Tween20 just before spraying. The inoculated leaf disks or segments are incubated under defined conditions (temperature, relative humidity, light, etc.) according to the respective test system. A single evaluation of disease level is carried out 3 to 14 days after inoculation, depending on the pathosystem. Percent disease control relative to the untreated check leaf disks or segments is then calculated.
Wheat leaf segments cv. Kanzler are placed on agar in multiwell plates (24-well format). The leaf segments are then inoculated with a spore suspension of the fungus. Plates were stored in darkness at 19° C. and 75% relative humidity. The formulated test compound diluted in water was applied 1 day after inoculation. The leaf segments were incubated at 19° C. and 75% relative humidity under a light regime of 12 hours light/12 hours darkness in a climate cabinet and the activity of a compound was assessed as percent disease control compared to untreated when an appropriate level of disease damage appears in untreated check leaf segments (6 to 8 days after application).
The following compounds at 200 ppm in the applied formulation give at least 80% disease control in this test when compared to untreated control leaf disks under the same conditions, which show extensive disease development.

[2] = tested on: Glomerella lagenarium (Colletotrichum lagenarium); test: Glomerella lagenarium (Colletotrichum lagenarium) liquid culture / cucumber / preventative (anthracnose); format: cell-based; settings: Colletotrichum orbiculare; 20 ppm in the applied formulation; conidia in PDB nutrient broth, 24° C.; 3 to 4 days after application; compared to untreated; read-out: disease control (inhibition of growth measured photometrically)
In short: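 Cryostored conidia in potato dextrose broth added to compound diluted from DMSO solution, 96-well format. Plates incubated at 24 °C. Growth inhibition read photometrically 3 to 4 days after application, as percent activity versus untreated check.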

[3] = tested on: Puccinia recondita f. sp. Tritici; test: Puccinia recondita f. sp. tritici / wheat / leaf disc preventative (brown rust); format: in vivo; settings: foliar, 200 ppm in the applied formulation, wheat leaf segments cv. Kanzler, inoculated 1 day after application, compared to untreated, assessed 7 to 9 days after application, read-out: disease control
In short: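 Single evaluation 7–9 d after spraying: % disease control compared with untreated leaf segments. Protocol: cv. Kanzler segments, preventative spray at 200 ppm, spore inoculation at day 1, 19° C., 75% rh, 12 h light/12 h dark.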

C/C=C/S(=O)(=O)N(C)Cc1ccc(-c2noc(C(F)(F)F)n2)cc1 [Compound 1.51, (E)-N-methyl-N-[[4-(5-(trifluoromethyl)-1,2,4-oxadiazol-3-yl]phenyl]methyl] prop-1-ene-1-sulfonamide]
≥ 80%: pest or weed control at 200 ppm [1] | inhibition at 20 ppm [2] | pest or weed control at 200 ppm [3]

CS(=O)(=O)NCc1ccc(-c2noc(C(F)(F)F)n2)cc1 [Compound 2.13, N-[[4-[5-(trifluoromethyl)-1,2,4-oxadiazol-3-yl]phenyl]methyl] methanesulfon-amide]
≥ 80%: pest or weed control at 200 ppm [1] | inhibition at 20 ppm [2] | pest or weed control at 200 ppm [3]

CCCN(Cc1ccc(-c2noc(C(F)(F)F)n2)cc1)S(=O)(=O)CC(=O)OC [Compound 1.76, methyl 2-[propyl-[[4-[5-(trifluoromethyl)-1,2,4-oxadiazol-3-yl]phenyl]methyl]sulfamoyl]acetate]
≥ 80%: pest or weed control at 200 ppm [1] | inhibition at 20 ppm [2] | pest or weed control at 200 ppm [3]

COCCS(=O)(=O)NCc1ccc(-c2noc(C(F)(F)F)n2)cc1F [Compound 2.34, N-[[2-fluoro-4-[5-(trifluoromethyl)-1,2,4-oxadiazol-3-yl]phenyl]methyl]-2-methoxy-ethanesulfon-amide]
≥ 80%: pest or weed control at 200 ppm [1] | inhibition at 20 ppm [2] | pest or weed control at 200 ppm [3]

CCN(Cc1ccc(-c2noc(C(F)(F)F)n2)c(F)c1F)S(=O)(=O)N(C)C [Compound 1.107, N-[[2,3-difluoro-4-[5-(trifluoromethyl)-1,2,4-oxadiazol-3-yl]phenyl]methyl]-N-(dimethylsulfamoyl) ethanamine]
≥ 80%: pest or weed control at 200 ppm [1] | inhibition at 20 ppm [2] | pest or weed control at 200 ppm [3]

C=CCS(=O)(=O)NCc1ccc(-c2noc(C(F)(F)F)n2)c(F)c1 [Compound 2.15, N-[[3-fluoro-4-[5-(trifluoromethyl)-1,2,4-oxadiazol-3-yl]phenyl]methyl] prop-2-ene-1-sulfonamide]
≥ 80%: pest or weed control at 200 ppm [1] | inhibition at 20 ppm [2] | pest or weed control at 200 ppm [3]

CN(C)S(=O)(=O)NCc1ccc(-c2noc(C(F)(F)F)n2)cc1F [Compound 2.31, 3-[4-[(dimethyl-sulfamoylamino)methyl]-3-fluoro-phenyl]-5-(trifluoromethyl)-1,2,4-oxadiazole]
≥ 80%: pest or weed control at 200 ppm [1] | inhibition at 20 ppm [2] | pest or weed control at 200 ppm [3]

CCCS(=O)(=O)NCc1ccc(-c2noc(C(F)(F)F)n2)cc1F [Compound 2.6, N-[[2-fluoro-4-[5-(trifluoromethyl)-1,2,4-oxadiazol-3-yl]phenyl]methyl] propane-1-sulfonamide]
≥ 80%: pest or weed control at 200 ppm [1] | inhibition at 20 ppm [2] | pest or weed control at 200 ppm [3]

C=CCS(=O)(=O)NCc1ccc(-c2noc(C(F)(F)F)n2)cc1F [Compound 2.32, N-[[2-fluoro-4-[5-(trifluoromethyl)-1,2,4-oxadiazol-3-yl]phenyl]methyl] prop-2-ene-1-sulfonamide]
≥ 80%: pest or weed control at 200 ppm [1] | inhibition at 20 ppm [2] | pest or weed control at 200 ppm [3]

CCCS(=O)(=O)NCc1ccc(-c2noc(C(F)(F)F)n2)cc1 [Compound 2.4, N-[[4-[5-(trifluoromethyl)-1,2,4-oxadiazol-3-yl]phenyl]methyl] propane-1-sulfonamide]
≥ 80%: pest or weed control at 200 ppm [1] | inhibition at 20 ppm [2] | pest or weed control at 200 ppm [3]

C=CCS(=O)(=O)N(CC)Cc1ccc(-c2noc(C(F)(F)F)n2)cc1 [Compound 1.34, N-ethyl-N-[[4-[5-(trifluoromethyl)-1,2,4-oxadiazol-3-yl]phenyl]methyl] prop-2-ene-1-sulfonamide]
≥ 80%: pest or weed control at 200 ppm [1] | inhibition at 20 ppm [2] | pest or weed control at 200 ppm [3]

CC(C)N(Cc1ccc(-c2noc(C(F)(F)F)n2)cc1)S(=O)(=O)c1ccn(C)n1 [Compound 1.82, N-isopropyl-1-methyl-N-[[4-[5-(trifluoromethyl)-1,2,4-oxadiazol-3-yl]phenyl]methyl] pyrazole-3-sulfonamide]
≥ 80%: pest or weed control at 200 ppm [1] | inhibition at 20 ppm [2] | pest or weed control at 200 ppm [3]

CCCN(Cc1ccc(-c2noc(C(F)(F)F)n2)cc1)S(=O)(=O)C1CC1 [Compound 1.69, N-propyl-N-[[4-[5-(trifluoromethyl)-1,2,4-oxadiazol-3-yl]phenyl]methyl] cyclopropanesulfonamide]
≥ 80%: pest or weed control at 200 ppm [1] | inhibition at 20 ppm [2] | pest or weed control at 200 ppm [3]

CCN(Cc1ccc(-c2noc(C(F)(F)F)n2)cc1F)S(=O)(=O)N(C)C [Compound 1.105, N-(dimethylsulfamoyl)-N-[[2-fluoro-4-[5-(trifluoromethyl)-1,2,4-oxadiazol-3-yl]phenyl]methyl] ethanamine]
≥ 80%: pest or weed control at 200 ppm [1] | inhibition at 20 ppm [2] | pest or weed control at 200 ppm [3]

C#CCNS(=O)(=O)N(C)Cc1ccc(-c2noc(C(F)(F)F)n2)cc1 [Compound 1.19, 3-[4-[[methyl(prop-2-ynylsulfamoyl)amino]methyl]phenyl]-5-(trifluoromethyl)-1,2,4-oxadiazole]
≥ 80%: pest or weed control at 200 ppm [1] | inhibition at 20 ppm [2] | pest or weed control at 200 ppm [3]

CS(=O)(=O)NCc1ccc(-c2noc(C(F)(F)F)n2)c(F)c1 [Compound 2.26, N-[[3-fluoro-4-[5-(trifluoromethyl)-1,2,4-oxadiazol-3-yl]phenyl]methyl] methanesulfon-amide]
≥ 80%: pest or weed control at 200 ppm [1] | inhibition at 20 ppm [2] | pest or weed control at 200 ppm [3]

CCN(Cc1ccc(-c2noc(C(F)(F)F)n2)cc1)S(C)(=O)=O [Compound 1.62, N-ethyl-N-[[4-[5-(trifluoromethyl)-1,2,4-oxadiazol-3-yl]phenyl]methyl] methanesulfonamide]
≥ 80%: pest or weed control at 200 ppm [1] | inhibition at 20 ppm [2] | pest or weed control at 200 ppm [3]

O=S(=O)(NCc1ccc(-c2noc(C(F)(F)F)n2)c(F)c1)N1CCCC1 [Compound 3.17, N-[[3-fluoro-4-[5-(trifluoromethyl)-1,2,4-oxadiazol-3-yl]phenyl]methyl] pyrrolidine-1-sulfonamide]
≥ 80%: pest or weed control at 200 ppm [1] | inhibition at 20 ppm [2] | pest or weed control at 200 ppm [3]

CNS(=O)(=O)N(Cc1ccc(-c2noc(C(F)(F)F)n2)cc1)C(C)C [Compound 1.87, 3-[4-[[isopropyl (methylsulfamoyl)amino]methyl]phenyl]-5-(trifluoromethyl)-1,2,4-oxadiazole]
≥ 80%: pest or weed control at 200 ppm [1] | inhibition at 20 ppm [2] | pest or weed control at 200 ppm [3]

CCN(Cc1ccc(-c2noc(C(F)(F)F)n2)cc1)S(=O)(=O)CCOC [Compound 1.37, N-ethyl-2-methoxy-N-[[4-[5-(trifluoromethyl)-1,2,4-oxadiazol-3-yl]phenyl]methyl] ethanesulfonamide]
≥ 80%: pest or weed control at 200 ppm [1] | inhibition at 20 ppm [2] | pest or weed control at 200 ppm [3]

CNS(=O)(=O)NCc1ccc(-c2noc(C(F)(F)F)n2)c(F)c1 [Compound 2.28, 1-[3-fluoro-4-[5-(trifluoromethyl)-1,2,4-oxadiazol-3-yl]phenyl]-N-(methylsulfamoyl) methanamine]
≥ 80%: pest or weed control at 200 ppm [1] | inhibition at 20 ppm [2] | pest or weed control at 200 ppm [3]

CNS(=O)(=O)NCc1ccc(-c2noc(C(F)(F)F)n2)cc1F [Compound 2.29, 1-[2-fluoro-4-[5-(trifluoromethyl)-1,2,4-oxadiazol-3-yl]phenyl]-N-(methylsulfamoyl) methanamine]
≥ 80%: pest or weed control at 200 ppm [1] | inhibition at 20 ppm [2] | pest or weed control at 200 ppm [3]

CCN(Cc1ccc(-c2noc(C(F)(F)F)n2)cc1)S(=O)(=O)NC [Compound 1.63, 3-[4-[[ethyl (methylsulfamoyl)amino]methyl]phenyl]-5-(trifluoromethyl)-1,2,4-oxadiazole]
≥ 80%: pest or weed control at 200 ppm [1] | inhibition at 20 ppm [2] | pest or weed control at 200 ppm [3]

CCN(Cc1ccc(-c2noc(C(F)(F)F)n2)cc1)S(=O)(=O)CC [Compound 1.61, N-ethyl-N-[[4-[5-(trifluoromethyl)-1,2,4-oxadiazol-3-yl]phenyl]methyl] ethanesulfonamide]
≥ 80%: pest or weed control at 200 ppm [1] | inhibition at 20 ppm [2] | pest or weed control at 200 ppm [3]
